Experimental data taken from US7671048B2, “Substituted imidazo [1,5-a][1,2,4]triazolo[1,5-d][1,4]benzodiazepine derivatives” (priority 2004, dated 2010).
Read-outs that look alike come from different tables or passages of the source.

Assays:
[1] = target: T1, GABA A receptor α2β3γ2 (Homo sapiens, UniProt P18507+P47869); assay: [3H]flumazenil competition binding, human α2β3γ2
T1 construct: expressed in transfected cells; host or cells: HEK293 (transiently transfected), membranes
Procedure: (§1) The affinity of compounds at GABA A receptor subtypes was measured by competition for [^3H]flumazenil (85 Ci/mmol; Roche) binding to HEK293 cells expressing rat (stably transfected) or human (transiently transfected) receptors of composition α1β3γ2, α2β3γ2, α3β3γ2 and α5β3γ2.
(§2) Cell pellets were suspended in Krebs-tris buffer (4.8 mM KCl, 1.2 mM CaCl2, 1.2 mM MgCl2, 120 mM NaCl, 15 mM Tris; pH 7.5; binding assay buffer), homogenized by polytron for ca. 20 sec on ice and centrifuged for 60 min at 4° C. (50000 g; Sorvall, rotor: SM24=20000 rpm). The cell pellets were resuspended in Krebs-tris buffer and homogenized by polytron for ca. 15 sec on ice. Protein was measured (Bradford method, Bio-Rad) and aliquots of 1 mL were prepared and stored at −80° C.
(§3) Radioligand binding assays were carried out in a volume of 200 μL (96-well plates) which contained 100 μL of cell membranes, [^3H]flumazenil at a concentration of 1 nM for α1, α2, α3 subunits and 0.5 nM for α5 subunits and the test compound in the range of 10^−10−3×10^−6 M. Nonspecific binding was defined by 10^−5 M diazepam and typically represented less than 5% of the total binding. Assays were incubated to equilibrium for 1 hour at 4° C. and harvested onto GF/C uni-filters (Packard) by filtration using a Packard harvester and washing with ice-cold-wash buffer (50 mM Tris; pH 7.5). After drying, filter-retained radioactivity was detected by liquid scintillation counting. Ki values were calculated using Excel-Fit (Microsoft) and are the means of two determinations.

[2] = target: T2, GABA A receptor α1β3γ2 (Homo sapiens, UniProt P14867+P18507); assay: [3H]flumazenil competition binding, human α1β3γ2
T2 construct: expressed in transfected cells; host or cells: HEK293 (transiently transfected), membranes
Procedure: as §1, §2, §3

[3] = target: T3, GABA A receptor α3β3γ2 (Homo sapiens, UniProt P18507+P34903); assay: [3H]flumazenil competition binding, human α3β3γ2
T3 construct: expressed in transfected cells; host or cells: HEK293 (transiently transfected), membranes
Procedure: as §1, §2, §3

[4] = target: T4, GABA A receptor α5β3γ2 (Homo sapiens, UniProt P18507+P31644); assay: [3H]flumazenil competition binding, human α5β3γ2
T4 construct: expressed in transfected cells; host or cells: HEK293 (transiently transfected), membranes
Procedure: as §1, §2, §3

[5] = HEK293 cell membranes, human (transiently transfected) receptor, 1 nM [3H]flumazenil, mean of two determinations, read-out: Ki[nM] hα2
[6] = HEK293 cell membranes, human (transiently transfected) receptor, 1 nM [3H]flumazenil, mean of two determinations, read-out: Ki[nM] hα1
[7] = HEK293 cell membranes, human (transiently transfected) receptor, 1 nM [3H]flumazenil, mean of two determinations, read-out: Ki[nM] hα3
[8] = HEK293 cell membranes, human (transiently transfected) receptor, 0.5 nM [3H]flumazenil, mean of two determinations, read-out: Ki[nM] hα5

CC(=O)c1ncn2c1Cn1ncnc1-c1cc(F)ccc1-2 [Example 1, 1-[3-Fluoro-9H-imidazo[1,5-a][1,2,4]triazolo[1,5-d][1,4]benzodiazepin-10-yl]-ethanone]
Ki [1, 5]: 183 nM
Ki [2, 6]: 314 nM
Ki [3, 7]: 233 nM
Ki [4, 8]: 104 nM

CCC(=O)c1ncn2c1Cn1ncnc1-c1cc(F)ccc1-2 [Example 2, 1-[3-Fluoro-9H-imidazo[1,5-a][1,2,4]triazolo[1,5-d][1,4]benzodiazepin-10-yl]-propan-1-one]
Ki [1]: 3.4 nM
Ki [2]: 6.2 nM
Ki [3]: 3.9 nM
Ki [4]: 2.2 nM

O=C(c1ncn2c1Cn1ncnc1-c1cc(F)ccc1-2)C1CC1 [Example 3, Cyclopropyl-[3-fluoro-9H-imidazo[1,5-a][1,2,4]triazolo[1,5-d][1,4]benzodiazepin-10-yl]-methanone]
Ki [1]: 2 nM
Ki [2]: 2.8 nM
Ki [3]: 1.8 nM
Ki [4]: 1.2 nM

O=C(CCCc1ccccc1)c1ncn2c1Cn1ncnc1-c1cc(F)ccc1-2 [Example 4, 1-[3-Fluoro-9H-imidazo[1,5-a][1,2,4]triazolo[1,5-d][1,4]benzodiazepin-10-yl]-4-phenyl-butan-1-one]
Ki [1]: 60 nM
Ki [2]: 45.6 nM
Ki [3]: 55.9 nM
Ki [4]: 16.4 nM

CCC(=O)c1ncn2c1Cn1ncnc1-c1cc(Cl)ccc1-2 [Example 5, 1-[3-Chloro-9H-imidazo[1,5-a][1,2,4]triazolo[1,5-d][1,4]benzodiazepin-10-yl]-propan-1-one]
Ki [1]: 28.1 nM
Ki [2]: 32.2 nM
Ki [3]: 22.4 nM
Ki [4]: 2.7 nM

O=C(c1ncn2c1Cn1ncnc1-c1cc(Cl)ccc1-2)C1CC1 [Example 6, Cyclopropyl-[3-chloro-9H-imidazo[1,5-a][1,2,4]triazolo[1,5-d][1,4]benzodiazepin-10-yl]-methanone]
Ki [1]: 18 nM
Ki [2]: 14.5 nM
Ki [3]: 19.9 nM
Ki [4]: 2.2 nM

O=C1CCCN1C(=O)c1ncn2c1Cn1ncnc1-c1cc(F)ccc1-2 [Example 9, 1-[[3-Fluoro-9H-imidazo[1,5-a][1,2,4]triazolo[1,5-d][1,4]benzodiazepin-10-yl]carbonyl]-2-pyrrolidinone]
Ki [1]: 12.3 nM
Ki [2]: 12.3 nM
Ki [3]: 9 nM
Ki [4]: 5.8 nM

C#CCNC(=O)c1ncn2c1Cn1ncnc1-c1cc(F)ccc1-2 [Example 10, 3-Fluoro-9H-imidazo[1,5-a][1,2,4]triazolo[1,5-d][1,4]benzodiazepine-10-carboxylic acid prop-2-ynylamide]
Ki [1]: 67.8 nM
Ki [2, 6]: 242 nM
Ki [3]: 64.9 nM
Ki [4]: 67.8 nM

CCOC(=O)c1ncn2c1Cn1ncnc1-c1cc(C3CC3)ccc1-2 [Example 12, Ethyl 3-cyclopropyl-9H-imidazo[1,5-a][1,2,4]triazolo[1,5-d][1,4]benzodiazepine-10-carboxylate]
Ki [1]: 0.9 nM
Ki [2]: 1.7 nM
Ki [3]: 0.7 nM
Ki [4]: 0.6 nM

CCOC(=O)c1ncn2c1Cn1ncnc1-c1cc(OC)ccc1-2 [Example 14, Ethyl 3-methoxy-9H-imidazo[1,5-a][1,2,4]triazolo[1,5-d][1,4]benzodiazepine-10-carboxylate]
Ki [1]: 1.7 nM
Ki [2]: 0.9 nM
Ki [3]: 0.9 nM
Ki [4]: 0.2 nM

CCOC(=O)c1ncn2c1Cn1ncnc1-c1cc(OC(F)(F)F)ccc1-2 [Example 19, Ethyl 3-trifluoromethoxy-9H-imidazo[1,5-a][1,2,4]triazolo[1,5-d][1,4]benzodiazepine-10-carboxylate]
Ki [1]: 1.1 nM
Ki [2]: 3.4 nM
Ki [3]: 1.4 nM
Ki [4]: 0.7 nM

O=Cc1ncn2c1Cn1ncnc1-c1cc(Cl)ccc1-2 [Example 21, 3-Chloro-9H-imidazo[1,5-a][1,2,4]triazolo[1,5-d][1,4]benzodiazepine-10-carbaldehyd]
Ki [1, 5]: 134 nM
Ki [2, 6]: 223 nM
Ki [3]: 71.9 nM
Ki [4]: 5.9 nM

CCOC(=O)c1ncn2c1Cn1ncnc1-c1cc(Br)ccc1-2 [Example 23, Ethyl 3-bromo-9H-imidazo[1,5-a][1,2,4]triazolo[1,5-d][1,4]benzodiazepine-10-carboxylate]
Ki [1, 5]: 3.8 nM
Ki [2, 6]: 1.9 nM
Ki [3, 7]: 1.8 nM
Ki [4, 8]: 0.3 nM

C#Cc1ccc2c(c1)-c1ncnn1Cc1c(C(=O)OCC)ncn1-2 [Example 24, Ethyl 3-ethynyl-9H-imidazo[1,5-a][1,2,4]triazolo[1,5-d][1,4]benzodiazepine-10-carboxylate]
Ki [1]: 4.4 nM
Ki [2]: 10.6 nM
Ki [3]: 6.4 nM
Ki [4]: 0.6 nM

COCCOC(=O)c1ncn2c1Cn1ncnc1-c1cc(Br)ccc1-2 [Example 25, 2-Methoxy-ethyl 3-bromo-9H-imidazo[1,5-a][1,2,4]triazolo[1,5-d][1,4]benzodiazepine-10-carboxylate]
Ki [1]: 28.5 nM
Ki [2]: 20.3 nM
Ki [3]: 18.8 nM
Ki [4]: 1.4 nM

CCCC(=O)c1ncn2c1Cn1ncnc1-c1cc(Br)ccc1-2 [Example 26, 1-[3-Bromo-9H-imidazo[1,5-a][1,2,4]triazolo[1,5-d][1,4]benzodiazepin-10-yl]-butan-1-one]
Ki [1, 5]: 106 nM
Ki [2]: 85.1 nM
Ki [3]: 72.7 nM
Ki [4]: 3.5 nM

CC(C)CC(=O)c1ncn2c1Cn1ncnc1-c1cc(Br)ccc1-2 [Example 31, 1-[3-Bromo-9H-imidazo[1,5-a][1,2,4]triazolo[1,5-d][1,4]benzodiazepin-10-yl]-3-methyl-butan-1-one]
Ki [1, 5]: 261 nM
Ki [2, 6]: 243 nM
Ki [3, 7]: 173 nM
Ki [4]: 8.3 nM

O=C(CCc1ccccc1)c1ncn2c1Cn1ncnc1-c1cc(Br)ccc1-2 [Example 33, 1-[3-Bromo-9H-imidazo[1,5-a][1,2,4]triazolo[1,5-d][1,4]benzodiazepin-10-yl]-3-phenyl-propan-1-one]
Ki [1, 5]: 160 nM
Ki [2, 6]: 109 nM
Ki [3, 7]: 133 nM
Ki [4]: 3.8 nM

CCOC(=O)c1ncn2c1Cn1ncnc1-c1cc(NC(=O)C(F)(F)F)ccc1-2 [Example 38, Ethyl 3-(2,2,2-trifluoro-acetylamino)-9H-imidazo[1,5-a][1,2,4]triazolo[1,5-d][1,4]benzodiazepine-10-carboxylate]
Ki [1]: 7.3 nM
Ki [2]: 3.1 nM
Ki [3]: 5.7 nM
Ki [4]: 1.2 nM

CCOC(=O)c1ncn2c1Cn1ncnc1-c1cc(NC(=O)C(C)C)ccc1-2 [Example 39, Ethyl 3-isobutyrylamino-9H-imidazo[1,5-a][1,2,4]triazolo[1,5-d][1,4]benzodiazepine-10-carboxylate]
Ki [1]: 73.5 nM
Ki [2]: 11.4 nM
Ki [3]: 39.7 nM
Ki [4]: 6.4 nM

CCOC(=O)c1ncn2c1Cn1ncnc1-c1cc(NC(=O)CCOC)ccc1-2 [Example 41, Ethyl 3-(3-methoxy-propionylamino)-9H-imidazo[1,5-a][1,2,4]triazolo[1,5-d][1,4]benzodiazepine-10-carboxylate]
Ki [1]: 24.8 nM
Ki [2]: 9.7 nM
Ki [3]: 17.7 nM
Ki [4]: 5.1 nM

CCOC(=O)c1ncn2c1Cn1ncnc1-c1cc(NC=O)ccc1-2 [Example 42, Ethyl 3-formylamino-9H-imidazo[1,5-a][1,2,4]triazolo[1,5-d][1,4]benzodiazepine-10-carboxylate]
Ki [1]: 8.6 nM
Ki [2]: 6.5 nM
Ki [3]: 4.9 nM
Ki [4]: 2 nM

CCOC(=O)Nc1ccc2c(c1)-c1ncnn1Cc1c(C(=O)OCC)ncn1-2 [Example 43, Ethyl 3-ethoxycarbonylamino-9H-imidazo[1,5-a][1,2,4]triazolo[1,5-d][1,4]benzodiazepine-10-carboxylate]
Ki [1]: 22 nM
Ki [2]: 5.3 nM
Ki [3]: 14.4 nM
Ki [4]: 2.6 nM

CCNC(=O)Nc1ccc2c(c1)-c1ncnn1Cc1c(C(=O)OCC)ncn1-2 [Example 44, Ethyl 3-(3-ethyl-ureido)-9H-imidazo[1,5-a][1,2,4]triazolo[1,5-d][1,4]benzodiazepine-10-carboxylate]
Ki [1]: 26 nM
Ki [2]: 20.3 nM
Ki [3]: 12.4 nM
Ki [4]: 6.9 nM
